With `CCCCCCCCCCCCc1nnn(CC(=O)Nc2c(OC)cc(OC)cc2OC)n1` the melting point was 144 to 146 °C.
Compound `CC(C)(C)OC(=O)NC(CO)COc1noc2ccc(NC=O)cc12` (stereo unspecified) has a melting point of 104 to 105 °C.
In the case of `C=CCN(CC=C)c1nc(N(CC=C)CC=C)nc(N2CCN(C(=O)NC(c3ccccc3)c3ccccc3)CC2)n1`, the melting point is reported as 158 to 159 °C.
With `COC(=O)c1cc(OC)c(OC)cc1C1=NCCc2ccccc21` the melting point was 133 °C.
With `CC(C)(C)c1ccc(CCC(=O)N2C(=O)OC[C@@H]2Cc2ccccc2)cc1` the melting point was 123 to 126 °C.
`C[C@H]1C(=O)CCN1c1ccc(C#N)c2ccccc12` showed a melting point of 113 to 114 °C.
`CS(=O)(=O)Nc1ccc([N+](=O)[O-])cc1SC1CCCCC1` gave a melting point of 140 °C.
`CCCN(CCC)c1c([N+](=O)[O-])cc(C)c(C(C)C)c1[N+](=O)[O-]` gave a melting point of 48.5 to 49 °C.
In the case of `Cc1noc(C)c1-c1ncccc1OC1SCC(O)C(O)C1O` (stereo unspecified), the melting point is reported as 112 °C.
In the case of `CS(=O)(=O)c1snc(OCC#CI)c1C#N`, the melting point is reported as 191 to 192 °C.
`CC(C)COC(=O)Nc1cc(Cl)cc(Cl)c1` showed a melting point of 75 °C.
Compound `CC(C)(C)OC(=O)CCc1ccnc(-c2nc(=O)c3ccc(F)cc3s2)c1` has a melting point of 138 °C.
Work on `COC(=O)CCC#Cc1cc(Cl)ccc1[N+](=O)[O-]` yielded a melting point of 75 to 78 °C.
With `COc1cc(-c2ccc(O)c(C3(C)CCCCC3)c2)cc(CC2SC(N3CCOCC3)=NC2=O)c1OC` (stereo unspecified) the melting point was 210 to 213 °C.
With `O=C1Nc2ccncc2C(=O)C1c1c(F)cccc1Cl` (stereo unspecified) the melting point was 249 °C.
In the case of `COc1ccc(C(=O)CCC(=O)O)cc1Cl`, the melting point is reported as 187 to 189 °C.
Compound `CCOC(=O)COc1ccc2c(c1)C(=O)CC1(CCCCC1)O2` has a melting point of 72 to 73 °C.
`O=c1[nH]c2ccc(S(=O)CCN3CCC(O)(Cc4ccccc4)CC3)cc2o1` (stereo unspecified) showed a melting point of 138 to 140 °C.
In the case of `COc1cccc(Oc2c(NS(=O)(=O)c3ccc(C(C)(C)C)cc3)ncnc2OCc2ccccn2)c1`, the melting point is reported as 206 to 208 °C.
Compound `COc1ccc2c(c1)CCCC21NC(=O)NC1=O` (stereo unspecified) has a melting point of 218 to 220 °C.
`COc1ccc(-c2nncn2-c2ccccc2)cc1` showed a melting point of 139 to 140 °C.
Compound `CNC(=O)C(Cc1ccc(OC)cc1)NC(=O)CC(SC(C)=O)C(CC(C)C)C(N)=O` (stereo unspecified) has a melting point of 235 to 240 °C.
For `COC(=O)c1cccc(C(=O)c2cc(C(=O)OC)cc(OC)c2OC)c1`, the melting point was 160 to 161 °C.
`CC1(C)NC(=O)N(CC(CS(=O)(=O)c2ccc(-c3ccc(OC(F)(F)F)cc3)cc2)N(O)C=O)C1=O` (stereo unspecified) showed a melting point of 195 to 197 °C.
`CCOC(=O)Cc1ccc(C(=O)c2ccccc2)cc1N` gave a melting point of 150 to 152 °C.
`C=CC(=Cc1ccccc1)N(C)C` gave a melting point of 72 to 74 °C.
`CC(C)(C)c1cc(Cc2c(S)ccc3ccccc23)cc(C(C)(C)C)c1O` gave a melting point of 30 °C.
With `CSc1nc(C)ccc1NC(=O)CCCCCSc1nc2ccccc2[nH]1` the melting point was 138 to 140 °C.
`O=C1CC(c2cccc(-n3ccnc3)c2)=Nc2cc(N3CCC4(CC3)OCCO4)c(-c3ccccc3F)cc2N1` showed a melting point of 225 °C.
`CCN(CC)CCCCC(=O)c1cccc2cc3c(C(=O)CCCCN(CC)CC)cccc3cc12` showed a melting point of 65 to 67 °C.
Work on `O=C1NC(=O)c2cc(Nc3ccccc3)c(Nc3ccccc3)cc21` yielded a melting point of 205 to 207 °C.
Work on `CC(C)(C)OC(=O)CC(=O)c1ccc(C#N)s1` yielded a melting point of 78 °C.
`Cc1nc2c3c(ccc2n1C)C(=O)[C@H](O)[C@@H](c1ccccc1)O3` gave a melting point of 233 °C.
Work on `Cc1ccc(S(=O)(=O)N2CCCC2c2ccc(Cl)cc2)cc1` (racemic) yielded a melting point of 121 °C.
With `Cn1c2c(cnc3ccccc32)c(=O)n1-c1ccc(Cl)cc1` the melting point was 158 to 161 °C.
`O=c1c(Cc2cccnc2)cn2c3ccccc3c(=O)c3cccc1c32` showed a melting point of 266 to 268 °C.
Compound `CC(C)(C)C(=O)Nc1c(SC(F)(F)F)c(C#N)nn1-c1c(Cl)cc(C(F)(F)F)cc1Cl` has a melting point of 172 to 174 °C.
Work on `N=C(N)c1ccc(S(=O)(=O)NCCc2ccc(OCC(=O)O)cc2)cc1` yielded a melting point of 292 to 293 °C.
`COC(=O)NCC(C)(C)c1ccc(NC(=O)c2ccc(OC)c(OC)c2)cc1` gave a melting point of 67 to 69 °C.
Compound `CCOC(=O)[C@@](C)(C#N)[C@@H](c1ccccc1OC)c1cccc2ccccc12` has a melting point of 134 to 136 °C.
Work on `Cc1ccc(-c2coc(C=CC(=O)NC3CCC(CN(C)C4CCOCC4)CC3)c2)cc1` (stereo unspecified) yielded a melting point of 165 to 167 °C.
With `CCCCCCCCCCCCCCC(O)(CCCCCC(=O)O)CCCCCC(=O)O` the melting point was 79 to 80 °C.
`COc1cc([N+](=O)[O-])c(C(=O)c2ccccc2)cc1O` showed a melting point of 154 to 156 °C.
`COc1cn(-c2ccc(-n3cc(F)c(F)c3)cc2F)nc(-c2ccnn2-c2ccccc2)c1=O` showed a melting point of 212 to 214 °C.
With `Cc1ccnc2c1nc(COc1ccc(CC3SC(=O)N(C(c4ccccc4)(c4ccccc4)c4ccccc4)C3=O)cc1)n2C` (stereo unspecified) the melting point was 92 to 105 °C.
`COc1cc(C=CC=C2SC(=O)NC2=O)cc(OC)c1OCc1ccccc1` gave a melting point of 217 to 218 °C.
In the case of `CCCCCCCCCCCCCCCCCCS(=O)(=O)c1cc(C(=O)O)c([N+](=O)[O-])c(C(=O)O)c1`, the melting point is reported as 203 to 205 °C.
Work on `CCCCCCc1cc(CO)c(-c2ccccc2)c(-c2ccccc2)c1CO` yielded a melting point of 136 to 137 °C.
`CC(C(=O)c1ccc(OCc2ccccc2)c(OCc2ccccc2)c1)N1CCC(n2c(=O)[nH]c3ccccc32)CC1` (stereo unspecified) gave a melting point of 87 to 90 °C.
With `CCCCc1cc2cc(C(=O)OCC)ccn2c1` the melting point was 47 to 48 °C.
`CON1Cc2c(cc3ccc4c(c3c2-c2ccc3c(c2)OCO3)OCO4)C1=O` gave a melting point of 214 to 216 °C.
`O=C1NCCN1c1ccc(S(=O)(=O)Nc2ccc(F)c(F)c2)cc1` showed a melting point of 225 to 226 °C.
`CCN(CC)C(=O)c1nc(-c2ccc(Cl)cc2Cl)[nH]c1C(F)(F)F` showed a melting point of 186 to 190 °C.
In the case of `COc1cc2c(c3ccccc13)N(C(C)=O)c1ccccc1S2`, the melting point is reported as 208 to 209 °C.
`Nc1cc(/C=C/c2nc3ccccc3s2)ccc1O` gave a melting point of 192 to 193 °C.
`CC(=O)OC1CC2=CCC3C4CCC(C(C)CCCC(C)C)C4(C)CCC3C2(C)C(OC(C)=O)C1OC(C)=O` (stereo unspecified) gave a melting point of 109 to 110 °C.
In the case of `CNC(=O)n1nc(Oc2ccc(C(F)(F)F)cc2[N+](=O)[O-])c(C)c1C`, the melting point is reported as 117 to 119 °C.
With `CC(C)(C)OC(=O)N1CCN(c2cccc3cc(N)cnc23)CC1` the melting point was 168 to 173 °C.
`C=CC(=O)OCCOc1ccc(-c2nc(-c3ccc(Cl)cc3)nc(-c3ccc(OCCOC(=O)C=C)cc3O)n2)c(O)c1` gave a melting point of 115 to 120 °C.
In the case of `C#Cc1ccc(I)c(Oc2cnc(N)nc2N)c1`, the melting point is reported as 156 to 159 °C.
`Cc1cccc(C2=NN(C(=O)c3cccnc3)CC2)c1` showed a melting point of 99 to 100 °C.
Compound `CCOC(=O)N(CC(=O)O)C(=O)c1c(F)ccc2c(C(F)(F)F)c(OC)ccc12` has a melting point of 136 to 138 °C.
With `CC(C)c1cc(C(C)C)c(C(=O)Nc2ccc(C(=O)O)cc2)[nH]1` the melting point was 225 to 226 °C.
Work on `CCOC(=O)c1ccc(C(=O)N(C)C)cc1S(=O)(=O)NC(C)(C)C` yielded a melting point of 101 to 102 °C.
With `CCCNC(=C1Sc2ccccc2C1=O)c1ccccc1` the melting point was 124 to 125 °C.
In the case of `CCOc1cc2c(cc1OC)CCN(c1nc(N)c3cc(OC)c(OC)cc3n1)C2`, the melting point is reported as 258 to 260 °C.
`O=C(Oc1ccc(Oc2ccccc2)cc1)N1CCC(OC(=O)N2CCC(OC(=O)N3CCC4(CCCC4)CC3)CC2)CC1` showed a melting point of 48 to 63 °C.
Work on `CCC=C(CCC)c1c2c(nn1C)N(c1c(C)cc(C)cc1Cl)CCC2` yielded a melting point of 86.7 to 88.2 °C.
With `COc1ccc(CNn2c(=O)ccc3ccc(Cl)nc32)cc1Cl` the melting point was 151 to 154 °C.
Work on `CC(C)Cc1ccc(C2(C)Oc3ccc(C(=O)O)cc3O2)cc1` (single isomer, unassigned; (-)) yielded a melting point of 120 to 122 °C.
`COc1ccc(Br)cc1N1CCCC1` gave a melting point of 47 to 48 °C.
`CC(C)C(NC(=O)OC(C)(C)C)C(=O)OCN1C(=O)CCC(N2C(=O)c3ccccc3C2=O)C1=O` (stereo unspecified) showed a melting point of 82 to 85 °C.
`O=C(O)c1ccccc1NCCCc1ccccc1` showed a melting point of 103 to 105 °C.
For `COc1cc(O)c(C(=O)C=Cc2ccc(O)c(OC)c2)c(OC)c1`, the melting point was 177 °C.
For `O=C1OCc2c(c3cc(-c4ccc(-c5ccccc5)cc4)ccc3n2Cc2ccccc2)C1=O`, the melting point was 254 to 255 °C.
Compound `CCOC(=O)CCc1ccc(C(=O)Cc2ccccc2)cc1` has a melting point of 50.5 to 52.5 °C.
For `O=C(O)CCc1oc(-n2ccnc2)nc1-c1ccc(Cl)cc1`, the melting point was 194 to 195 °C.
Work on `CC(C)CN(CC(C)C)S(=O)(=O)N[C@@H](Cc1ccc(NC(=O)c2c(Cl)cncc2Cl)cc1)C(=O)O` yielded a melting point of 209 °C.
`O=C(c1ccc(OCCN2CCCCC2)cc1)c1c(-c2ccc(O)cc2)sc2ccccc12` gave a melting point of 100 to 103 °C.
With `O=c1cc(-c2ccccc2)c2cc(C(c3ccccc3)n3ccnc3)ccc2[nH]1` (stereo unspecified) the melting point was 253 °C.
In the case of `N#Cc1c(C(F)(F)F)nn(-c2c(Cl)cc(C(F)(F)F)cc2Cl)c1N(C(=O)C1CC1)C(=O)C1CC1`, the melting point is reported as 126 to 127 °C.
Compound `CCCCc1nc2ccccc2n1Cc1ccc(C#N)cc1` has a melting point of 130 °C.
Work on `CC(C)CC(=O)Nc1c(C(=O)c2cccc(Cl)c2)[nH]c2ccc([N+](=O)[O-])cc12` yielded a melting point of 197 to 199 °C.
In the case of `O=c1[nH]c2cc(Cl)ccc2c(=O)n1S(=O)(=O)c1c(Cl)cccc1Cl`, the melting point is reported as 260 to 261 °C.
Work on `O=C(Nc1cccc2c(=O)cc(-c3nnn[nH]3)oc12)c1ccc2c(c1)CC(COCc1ccc(F)cc1)O2` (stereo unspecified) yielded a melting point of 229 to 232 °C.
Compound `Fc1cccc(COc2ccc(Nc3ncnc4sc(C#Cc5nccs5)cc34)cc2Cl)c1` has a melting point of 204 °C.
Work on `CC1=C(Cc2ccc(C(=O)O)cc2)C(=O)C2C=CC=CC2C1=O` (stereo unspecified) yielded a melting point of 206 to 208 °C.
For `Cc1cc2nc(S(=O)Cc3ccccc3N)[nH]c2cc1C` (stereo unspecified), the melting point was 179 to 181 °C.
For `CC(C)(C)C(=O)C=Cc1ccc(Cl)cc1`, the melting point was 83 to 84 °C.
`CCCCNc1nc2cc(C)nn2c2ccncc12` gave a melting point of 116 °C.
With `CC1CC(=O)NN=C1c1ccc2c(c1)OCC(=O)N2C` (stereo unspecified) the melting point was 188 to 190 °C.
Compound `COc1cc(Nc2c(C#N)cnc3cc(-c4ccc(C5OCCO5)o4)ccc23)c(Cl)cc1Cl` has a melting point of 224 to 229 °C.
`O=C(O)[C@H](Cc1cccs1)NN1C(=O)c2ccccc2C1=O` gave a melting point of 166 to 168 °C.
With `Fc1ccc(-c2[nH]cc(-c3c(F)c(F)nc(F)c3F)c2-c2ccncc2)cc1` the melting point was > 300 °C.
Compound `CN(C)C1CSC(C#N)(c2ccc(Cl)cc2)SC1` (stereo unspecified) has a melting point of 110 to 111 °C.
`COC(=O)c1[nH]c2c(C)ccc(C)c2c1C=NOCc1ccccc1` gave a melting point of 104 to 105 °C.
